Tests used:
[1] = target: recombinant human FGFR3 (amino acids R397-T806) (Homo sapiens (Human), UniProt P22607); test: FGFR3 enzyme activity assay (LanthaScreen TR-FRET); assay type: biochemical; conditions: 25 μM ATP, 10 min incubation at 22° C., average of multiple determinations if made, read-out: FGFR3 Enz FRET IC50
Protocol: FGFR3 kinase activity was measured by the Invitrogen LanthaScreen™ Assay technology which directly measures the amount of substrate phosphorylation by TR-FRET using a fluorescently-labeled peptide and Europium-labeled antibody. Briefly, […] N-terminal GST-HIS6 fusion protein with a 3C cleavage site recombinant human FGFR3 (amino acids R397-T806) (ProQinase Cat. No. 1068-0000-1) was incubated with 100 nM Alexa Fluor® 647-Poly-GT Peptide Substrate (Life Technologies Cat. No. PV5836) and 25 μM ATP along with test compound in a buffer consisting of 250 mM HEPES, 25 mM MgCl2, 0.05% TritonX-100, pH 7.5, and 2% DMSO. […] After a 10 minute incubation at 22° C., an equal volume of 2 nM LanthaScreen® Eu-PY20 Antibody (Life Technologies Cat. No. PV5691) and 10 mM EDTA were added to quench the kinase reaction and start the detection reaction. After an additional 60 minute incubation at 22° C., the reaction was measured using a PerkinElmer EnVision multimode plate reader via TR-FRET dual wavelength detection, and the percent of control (POC) calculated using a ratiometric emission factor. 100 POC was determined using no test compounds and 0 POC was determined using no enzyme. The POC values were fit to a 4-parameter logistic curve as a function of the concentration of the compound, and the IC50 value is the point where the curve crosses 50 POC.

[2] = target: FGFR1 (SEQ ID NO: 1, amino acids 458-765) (Homo sapiens (Human), UniProt P11362); test: LC/MS FGFR1 kobs assay (covalent protein modification); assay type: binding; conditions: 500 nM FGFR1, 3 μM compound
Protocol: (§1) The LC/MS FGFR1 and FGFR3 kobs assays were conducted as follows. […] At each time point, the reaction was quenched with 20 μL of 0.4% formic acid. The extent of protein modification by each compound was determined by LC/MS on an Agilent Technologies 6520 Q-TOF LC/MS. Protein signals were then automatically deconvoluted using Agilent Masshunter software. Deconvoluted mass signals were exported to Tibco Spotfire data analysis program for further processing and normalization.
(§2) Data analysis included five steps. First, the signals for the “DMSO Controls” were analyzed to determine the percent of signal associated with unmodified FGFR1 or FGFR3 at each time point. Next, the percent of the signal associated with the covalent modification was determined. Third, the average nonmodified “DMSO Control” signal was used to normalize the modified protein signals at each time point. The percent of unmodified protein was fit to an exponential decay model where A0 is the Percent Unmodified at the start of the reaction, and kobs is the observed rate constant over the time period.

[3] = target: FGFR3 (SEQ ID NO: 5, amino acids 449-759) (Homo sapiens (Human), UniProt P22607); test: LC/MS FGFR3 kobs assay (covalent protein modification); assay type: binding; conditions: 500 nM FGFR3, 3 μM compound
Protocol: as §1, §2
Table EC contains kobs values for compounds tested in these assays, presented as the average of multiple determinations if multiple determinations were made. ND=not determined.

[4] = target: recombinant human FGFR2 cytoplasmic domain (amino acids 403-822) (Homo sapiens (Human), UniProt P21802); test: FGFR2 enzyme activity assay (LanthaScreen TR-FRET); assay type: biochemical; conditions: 15 μM ATP, 20 min incubation at 22° C., average of multiple determinations if made, read-out: FGFR2 Enz FRET IC50
Protocol: FGFR2 kinase activity was measured by the Invitrogen LanthaScreen™ Assay technology which directly measures the amount of substrate phosphorylation by TR-FRET using a fluorescently-labeled peptide and Europium-labeled antibody. Briefly, […] His-tagged recombinant human FGFR2 cytoplasmic domain (amino acids 403-822) (Life Technologies Cat. No. PR5332A) was incubated with 100 nM Alexa Fluor® 647-Poly-GT Peptide Substrate (Life Technologies Cat. No. PV5836) and 15 μM ATP along with test compound in a buffer consisting of 250 mM HEPES, 25 mM MgCl2, 0.05% TritonX-100, pH 7.5, and 2% DMSO. […] After a 20 minute incubation at 22° C., an equal volume of 2 nM LanthaScreen® Eu-PY20 Antibody (Life Technologies Cat. No. PV5691) and 10 mM EDTA were added to quench the kinase reaction and start the detection reaction. After an additional 60 minute incubation at 22° C., the reaction was measured using a PerkinElmer EnVision multimode plate reader via TR-FRET dual wavelength detection, and the percent of control (POC) calculated using a ratiometric emission factor. 100 POC was determined using no test compounds and 0 POC was determined using no enzyme. The POC values were fit to a 4-parameter logistic curve as a function of the concentration of the compound, and the IC50 value is the point where the curve crosses 50 POC.

[5] = target: phosphorylated FGFR3 (SEQ ID NO: 5, amino acids 449 to 759) (Homo sapiens (Human), UniProt P22607); test: FGFR enzyme binding assay (HTRF tracer displacement), FGFR3; conditions: 5 nM phosphorylated FGFR3, average of multiple determinations if made
Protocol: (§3) The potency of compounds inhibiting human isoforms of FGFR kinase was determined using Life Technologies' Homogeneous Time Resolved Fluorescence (HTRF)-based binding assay technology. […] After a 60 minute incubation at 22° C., the extent of tracer displacement was determined using a PerkinElmer EnVision multimode plate reader via HTRF dual wavelength detection, and the percent of control (POC) was calculated using a ratiometric emission factor. One hundred POC was determined using no test compound, and 0 POC was determined in the presence of 1 μM of an appropriate control inhibitor.

[6] = target: dephosphorylated FGFR1 (SEQ ID NO: 1, amino acids 458 to 765) (Homo sapiens (Human), UniProt P11362); test: FGFR enzyme binding assay (HTRF tracer displacement), FGFR1; conditions: 5 nM dephosphorylated FGFR1, average of multiple determinations if made
Protocol: as §3

[7] = target: recombinant human FGFR1 catalytic domain (amino acids 308-731) (Homo sapiens (Human), UniProt P11362); test: FGFR1 enzyme activity assay (LanthaScreen TR-FRET); assay type: biochemical; conditions: 20 min incubation at 22° C., average of multiple determinations if made, read-out: FGFR1 Enz FRET IC50
Protocol: FGFR1 kinase activity was measured by the Invitrogen LanthaScreen™ Assay technology which directly measures the amount of substrate phosphorylation by Time-resolved fluorescence energy transfer (TR-FRET) using a fluorescently-labeled peptide and Europium-labeled antibody. Briefly, […] His-tagged recombinant human FGFR1 catalytic domain (amino acids 308-731) (Life Technologies Cat. No. PR4660A) was incubated with 100 nM Alexa Fluor® 647-Poly-GT Peptide Substrate (Life Technologies Cat. No. PV5836) and […] ATP along with test compound in a buffer consisting of 250 mM HEPES, 25 mM MgCl2, 0.05% TritonX-100, pH 7.5, and 2% DMSO. […] After a 20 minutes incubation at 22° C., an equal volume of 2 nM LanthaScreen® Eu-PY20 Antibody (Life Technologies Cat. No. PV5691) and 10 mM EDTA was added to quench the kinase reaction and start the detection reaction. After an additional 60 minute incubation at 22° C., the reaction was measured using a PerkinElmer EnVision multimode plate reader via TR-FRET dual wavelength detection, and the percent of control (POC) calculated using a ratiometric emission factor. 100 POC was determined using no test compounds and 0 POC was determined using no enzyme. The POC values were fit to a 4-parameter logistic curve as a function of the concentration of the compound, and the IC50 value is the point where the curve crosses 50 POC.

Sequence of FGFR1 (SEQ ID NO: 1, amino acids 458-765) (P11362 458-765): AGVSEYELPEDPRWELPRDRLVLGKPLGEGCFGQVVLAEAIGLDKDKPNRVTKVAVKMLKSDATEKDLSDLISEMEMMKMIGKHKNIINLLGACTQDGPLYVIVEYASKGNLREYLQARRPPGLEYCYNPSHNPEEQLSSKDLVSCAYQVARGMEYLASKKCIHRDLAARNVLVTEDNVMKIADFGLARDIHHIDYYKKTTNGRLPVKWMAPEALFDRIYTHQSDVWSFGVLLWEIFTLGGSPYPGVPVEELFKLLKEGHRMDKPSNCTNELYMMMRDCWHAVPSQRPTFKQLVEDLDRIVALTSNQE
Sequence of dephosphorylated FGFR1 (SEQ ID NO: 1, amino acids 458 to 765) (P11362 458-765): as above
Sequence of FGFR3 (SEQ ID NO: 5, amino acids 449-759) (P22607 449-759): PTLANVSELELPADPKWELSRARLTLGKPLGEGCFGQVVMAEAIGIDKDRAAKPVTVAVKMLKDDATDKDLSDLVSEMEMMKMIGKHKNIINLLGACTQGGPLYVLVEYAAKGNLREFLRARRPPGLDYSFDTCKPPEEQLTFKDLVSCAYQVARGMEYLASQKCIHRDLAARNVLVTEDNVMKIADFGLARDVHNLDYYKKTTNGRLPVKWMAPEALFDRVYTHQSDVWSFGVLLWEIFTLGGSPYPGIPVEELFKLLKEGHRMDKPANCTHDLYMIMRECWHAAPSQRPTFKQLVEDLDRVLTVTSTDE
Sequence of phosphorylated FGFR3 (SEQ ID NO: 5, amino acids 449 to 759) (P22607 449-759): as above
Sequence of recombinant human FGFR2 cytoplasmic domain (amino acids 403-822) (P21802 402-821): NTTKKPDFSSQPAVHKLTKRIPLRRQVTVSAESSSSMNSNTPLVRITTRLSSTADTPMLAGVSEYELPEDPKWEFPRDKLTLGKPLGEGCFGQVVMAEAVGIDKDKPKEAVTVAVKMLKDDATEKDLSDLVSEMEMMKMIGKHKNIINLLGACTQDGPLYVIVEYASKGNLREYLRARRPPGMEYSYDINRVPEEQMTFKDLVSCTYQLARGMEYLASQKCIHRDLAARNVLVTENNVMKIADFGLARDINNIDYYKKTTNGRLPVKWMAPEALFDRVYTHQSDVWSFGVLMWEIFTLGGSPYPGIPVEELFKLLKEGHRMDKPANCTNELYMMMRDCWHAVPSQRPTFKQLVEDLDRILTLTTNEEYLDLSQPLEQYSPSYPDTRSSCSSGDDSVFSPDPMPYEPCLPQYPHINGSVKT
Sequence of recombinant human FGFR1 catalytic domain (amino acids 308-731) (P11362 other isoform, or with tags, fused parts or gaps): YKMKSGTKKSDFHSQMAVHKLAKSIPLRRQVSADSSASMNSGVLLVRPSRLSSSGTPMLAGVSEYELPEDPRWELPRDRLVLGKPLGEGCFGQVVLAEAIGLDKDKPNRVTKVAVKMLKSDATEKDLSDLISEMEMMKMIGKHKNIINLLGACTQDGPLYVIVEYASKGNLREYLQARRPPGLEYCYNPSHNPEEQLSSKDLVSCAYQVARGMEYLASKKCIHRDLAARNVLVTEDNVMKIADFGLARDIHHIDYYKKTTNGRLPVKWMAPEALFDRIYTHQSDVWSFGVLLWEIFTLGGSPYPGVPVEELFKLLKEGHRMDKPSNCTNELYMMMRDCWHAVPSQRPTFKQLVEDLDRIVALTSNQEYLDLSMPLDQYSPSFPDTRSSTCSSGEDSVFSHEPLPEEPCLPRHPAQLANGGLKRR
Sequence of recombinant human FGFR3 (amino acids R397-T806) (P22607 397-806): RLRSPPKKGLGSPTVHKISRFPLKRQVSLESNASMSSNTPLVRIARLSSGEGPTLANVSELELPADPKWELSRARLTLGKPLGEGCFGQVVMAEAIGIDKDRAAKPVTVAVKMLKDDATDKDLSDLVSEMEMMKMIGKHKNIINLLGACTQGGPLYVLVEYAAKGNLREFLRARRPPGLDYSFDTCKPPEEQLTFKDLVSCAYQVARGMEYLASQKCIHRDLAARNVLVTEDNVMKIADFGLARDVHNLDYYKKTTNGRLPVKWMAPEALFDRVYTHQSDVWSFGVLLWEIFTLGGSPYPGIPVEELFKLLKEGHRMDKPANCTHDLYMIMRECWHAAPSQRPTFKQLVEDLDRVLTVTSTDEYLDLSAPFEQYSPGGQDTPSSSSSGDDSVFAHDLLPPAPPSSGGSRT

IC50 [1] [nM] | FGFR1 Enz kobs [2] [min⁻¹] | FGFR3 Enz kobs [3] [min⁻¹] | IC50 [4] [nM] | IC50 [5] [nM] | IC50 [6] [nM] | IC50 [7] [nM] | SMILES
5 | 0.00146 | 0.00341 | 3 | 12 | 47 | 8 | C=CC(=O)Nc1cccc(C(=O)N2CC[C@H](n3cc(-c4cc(OC)c5c(C#N)cnn5c4)cn3)C2)c1 [Example 67, (S)-N-(3-(3-(4-(3-cyano-4-methoxypyrazolo[1,5-a]pyridin-6-yl)-1H-pyrazol-1-yl)pyrrolidine-1-carbonyl)phenyl)acrylamide]
3 | 0.00049 | 0.00117 | 5 | 7 | 36 | 25 | C=CC(=O)N1CC[C@@H](C(=O)N2CC[C@H](n3cc(-c4cc(OC)c5c(C#N)cnn5c4)cn3)C2)C1 [Example 72, 6-(1-((S)-1-((R)-1-acryloylpyrrolidine-3-carbonyl)pyrrolidin-3-yl)-1H-pyrazol-4-yl)-4-methoxypyrazolo[1,5-a]pyridine-3-carbonitrile]
7 | 0.00071 | 0.00114 | 3 | 25 | 109 | 11 | C=CC(=O)N1CCC2(CC1)CC(C(=O)N1CCC(n3cc(-c4cc(OC)c5c(C#N)cnn5c4)cn3)CC1)C2 [Example 48, 6-(1-(1-(7-acryloyl-7-azaspiro[3.5]nonane-2-carbonyl)piperidin-4-yl)-1H-pyrazol-4-yl)-4-methoxypyrazolo[1,5-a]pyridine-3-carbonitrile]
4 | 0.00121 | 0.00455 | 6 | 33 | 229 | 39 | COc1cc(-c2cnn(C3CN(CC4CN(C(=O)/C=C/CN5CCCCC5)C4)C3)c2)cn2ncc(C#N)c12 [Example 149, (E)-4-methoxy-6-(1-(1-((1-(4-(piperidin-1-yl)but-2-enoyl)azetidin-3-yl)methyl)azetidin-3-yl)-1H-pyrazol-4-yl)pyrazolo[1,5-a]pyridine-3-carbonitrile]
7 | 0.00024 | 0.00111 | 7 | 22 | 174 | 26 | C=CC(=O)N[C@H]1C[C@@H](C(=O)N2CC(n3cc(-c4cc(OC)c5c(C#N)cnn5c4)cn3)C2)C1 [Example 80, N-((1s,3s)-3-(3-(4-(3-cyano-4-methoxypyrazolo[1,5-a]pyridin-6-yl)-1H-pyrazol-1-yl)azetidine-1-carbonyl)cyclobutyl)acryl-amide]

The remaining lines, values behind:

SMILES | IC50 [1] [nM] | FGFR1 Enz kobs [2] [min⁻¹] | FGFR3 Enz kobs [3] [min⁻¹] | IC50 [4] [nM] | IC50 [5] [nM] | IC50 [6] [nM] | IC50 [7] [nM]
C=CC(=O)N1C[C@H]2C[C@@H]1CN2C(=O)N1CCC(n2cc(-c3cc(OC)c4c(C#N)cnn4c3)cn2)CC1 [Example 5, 6-(1-(1-((1R,4R)-5-acryloyl-2,5-diazabicyclo[2.2.1]heptane-2-carbonyl)piperidin-4-yl)-1H-pyrazol-4-yl)-4-methoxypyrazolo[1,5-a]pyridine-3-carbonitrile] | 7 | 0.00047 | 0.00287 | 11 | 5 | 47 | 25
C=CC(=O)N1CCC[C@@H](C(=O)N2CCC(n3cc(-c4cc(OC)c5c(C#N)cnn5c4)cn3)CC2)C1 [Example 17, (R)-6-(1-(1-(1-acryloylpiperidine-3-carbonyl)piperidin-4-yl)-1H-pyrazol-4-yl)-4-methoxypyrazolo[1,5-a]pyridine-3-carbonitrile] | 6 | 0.00041 | 0.00163 | 7 | 8 | 45 | 17
C=CC(=O)N1CCN(c2cccc(-n3cc(-c4cc(OC)c5c(C#N)cnn5c4)cn3)c2)CC1 [Example 27, 6-(1-(3-(4-acryloylpiperazin-1-yl)phenyl)-1H-pyrazol-4-yl)-4-methoxypyrazolo[1,5-a]pyridine-3-carbonitrile] | 21 | 0.00017 | 0.00184 | 13 | 44 | 191 | 63
C=CC(=O)N1CCC[C@H](C(=O)N2CCC(n3cc(-c4cc(OC)c5c(C#N)cnn5c4)cn3)CC2)C1 [Example 16, (S)-6-(1-(1-(1-acryloylpiperidine-3-carbonyl)piperidin-4-yl)-1H-pyrazol-4-yl)-4-methoxypyrazolo[1,5-a]pyridine-3-carbonitrile] | 2 | 0.00054 | 0.00124 | 4 | 6 | 31 | 20
